The subject of this experiment is Sphaerotheca fuliginea. Put plainly: Test on Preventive Effect Against Cucumber Powdery Mildew. The settings on record: 200 ppm, spray on cucumber (Sagamihanpaku) 1.5-leaf stage; area of sporulation 6 to 7 days after inoculation.

Procedure: In each test, the controlling index was determined on the basis of the following standards:
Cucumber (cultivar: Sagamihanpaku) was cultivated in a plastic pot having a diameter of 7.5 cm, and when it reached 1.5-leaf stage, 10 ml of a chemical solution having the acid amide derivative of the formula (I) or a salt thereof adjusted to a prescribed concentration, was applied by a spray gun. After the chemical solution dried (the same day as the application or the next day), a suspension of conidia of Sphaerotheca fuliginea was sprayed and inoculated and maintained in a constant temperature chamber at 20° C. From 6 to 7 days after the inoculation, the area of sporulation was investigated, and the controlling index was determined in accordance with the above evaluation standards.

With `Cc1nn(C)c(Cl)c1C(=O)NC(C)(C)C(=O)c1ccccc1` [1-34], the controlling index was 4 (Area of lesions, length of lesions, number of lesions or area of sporulation is less than 10% of non-treated plot).

Source of the values: patent US8039420B2, “Fungicidal composition containing acid amide derivative” (Ishihara Sangyo Kaisha, Ltd., priority 2004, dated 2011).
